One test has as its system RhoA. Nature of the test: RhoA-GTP formation, GST-Rhotekin effector pull-down assay in collagen-stimulated platelets. The class given is cell-based, human. To be noted: 20 µM, 2 min pre-incubation; collagen 1 µg/mL for 4 min. Here is the method: Next, the ability of the six compounds to suppress RhoA activity in platelets was assessed by subjecting them to a GST (Glutathione-S-transferase)-Rhotekin effector pull-down assay. The compounds were incubated with washed human platelets for 2 min before being stimulated with 1 µg/mL collagen. The analogs inhibited the activation of RhoA at the 20 µM concentration (Figure 2A,B). […] After confirming that these analogs could prevent RhoA activation and the phosphorylation of the MLC, their ability to disrupt complex-formation between RhoA and LARG was tested. […] These findings indicate that the active analogs inhibit RhoA activation by disrupting the binding between RhoA and its GEF.
(A,B) Washed human platelets were incubated with collagen (1 µg/mL) for 4 min, and the levels of RhoA-GTP formation were quantified with a GST-Rhotekin effector pull-down assay. The platelets were pre-incubated with 20 µM UC-177618, UC-177619, UC-177628, UC-177629, […], or […] for 2 min before being stimulated with collagen. The addition of ice-cold lysis buffer terminated the reaction. […] Relative amounts of the GTP-bound form of RhoA were quantified with densitometry measurements of total RhoA (T-RhoA) and normalized to untreated platelets. (C,D) The addition of 20 µM of active Rhosin-related compounds to washed human platelets 2 min before stimulation with collagen blocked the phosphorylation of the myosin light chain (p-MLC). The reactions were terminated after 4 min by adding 4x Laemmli sample buffer. The samples were processed for Western blotting and probed for MLC and p-MLC, and phosphorylation was quantified by measuring the densitometry of total MLC (T-MLC). The differences between DMSO- and Rhosin-related compounds were analyzed with t-test, and the results are shown as means ± SDs of three independent experiments. (* p < 0.05, ** p < 0.01, *** p < 0.001, and **** p < 0.0001).
The relative levels of RhoA-GTP in washed human platelets were quantified with effector domains GST-Rhotekin pull-down assays as previously reported. A volume of 250 µL of washed human platelets (2.5 × 10^8/mL) was pre-warmed to 37 °C along with the compounds or DMSO (0.1%) for 2 min before being stimulated with collagen (1 µg/mL). The reactions were terminated 4 min after collagen stimulation by adding ice-cold lysis buffer (20 mM Tris·HCl (pH 7.6), 100 mM NaCl, 1% Triton X-100, 0.2% Sodium Deoxycholate, 10 mM MgCl2, 1 mM dithiothreitol, 1x protease inhibitor cocktail, and 1x phosphatase inhibitor cocktail). The supernatants were collected and subjected to the GST-Rhotekin pull-down assay. The total cell lysates were also blotted in parallel. GTP-bound RhoA was quantitatively detected with Western blotting using an anti-RhoA antibody. The relative amounts of RhoA were quantified with densitometry measurements and normalized to the untreated platelets.

Test [1] deals with washed human platelets. Nature of the test: Wash-out reversibility of inhibition of collagen-induced platelet aggregation. It is filed as cell-based. Here is the method: The reversible inhibition of Rhosin in collagen-induced platelet aggregation was assessed with similar wash-out experiments, and this reversible nature of Rhosin makes it a valuable antiplatelet drug candidate (Supporting Information Figure S4A,B). After confirming the structures of the above six active analogs, similar wash-out experiments were performed to compare the reversible function of the active analogs with Rhosin reversibility.

Test [2] has as its system washed human platelets. Nature of the test: Collagen-induced platelet aggregation, light transmission aggregometry (Born method). Particulars: for IC50: Homo sapiens, collagen-induced platelet aggregation, compounds without IC50 determination estimated from percent inhibition at 20 µM, read-out: IC50 (SAR table); for IC50 / activity at 20 µM: Platelet; for activity at 20 µM: compound 20 µM, washed human platelets, means ± SDs of three experiments, 100% = agonist alone. It is filed as cell-based. Here is the method:
Light transmission aggregometry, i.e., the Born method, was used to determine in vitro antiplatelet aggregation activity using collagen as the agonist for platelet aggregation. Collagen was selected as the agonist, since it is the most thrombogenic component of the subendothelial layer. Collagen also serves as a substrate for platelet adhesion and as an inducer of platelet activation.
All experiments using human blood from healthy volunteers were performed according to the protocols approved by the Institutional Review Board at Cincinnati Children’s Hospital Medical Center, Cincinnati, Ohio. Each volunteer was required to sign an informed consent form approved by the IRB. Procedures for drawing human blood, isolating platelet-rich plasma (PRP), and preparing washed platelet suspensions were the same as those previously reported. […] PRP was obtained by means of the centrifugation of blood at 1400 rpm for 15 min at room temperature. PRP was centrifuged at 4000 rpm for 10 min at room temperature, and the platelet pellet was resuspended in HEPES Tyrode’s solution (pH 7.4) without calcium. Platelets were counted using Hemavet 950FS (Drew Scientific, Oxford, CT, USA), and the count was adjusted to 2.5 × 10^8/mL for aggregation studies.
The in vitro antiplatelet activity of the compounds was assayed on washed human platelets using light transmission aggregometry. Platelet aggregation was performed using a 4-channel Lumi-aggregometer (Chronolog, PA, USA) at 37 °C and stirring speed of 900 rpm. A volume of 250 µL of washed human platelets (2.5 × 10^8/mL) was pre-warmed to 37 °C along with the compounds or DMSO (0.1%) for 2 min before the addition of agonists such as collagen, AA, U46619 (a stable synthetic analog of thromboxane A2), ADP, and thrombin. For ATP secretion, platelets were pre-incubated with a luciferin/luciferase kit (Chrono-lume®) for 30 s at 37 °C before the addition of the agonist. The reactions were allowed to proceed for at least 4 min, and the results of platelet aggregation and ATP secretion were determined using Aggrolink software. Platelet aggregation was expressed as the maximum change in the light transmission, where the 100% value corresponded to treatment with the agonist alone. Compounds were evaluated in triplicate at nine compound concentrations ranging from 50 µM to 1 µM.

The next test has as its target T1, RhoA-LARG interaction (Homo sapiens, UniProt P61586).
T1 construct: 100 ng of purified full-length RhoA
Put plainly: In vitro complex-formation assay of RhoA with LARG DH-PH domain. The class given is binding. To be noted: 20 µM; pull-down assay conditions, 4 °C, 1 h. How it is done: (A) A complex-formation assay tested the inhibitory effects of 20 µM UC-177618 and UC-177619 on RhoA interaction with the LARG DH-PH domain. […] After incubating the compound-RhoA-LARG mixture at 4 °C for 1 h, the beads associated with RhoA were detected with anti-RhoA Western blotting. (B,C) Top view of the predicted structural contacts of UC-177618 and UC-177619 in the binding pocket around the Trp58 residue of RhoA.
(A) A complex-formation assay tested the inhibitory effects of R-G04 and S-G04 on RhoA interaction with the LARG DH-PH domain. MBP-(His)6-tagged LARG (100 ng) was immobilized on Amylose beads. Binding buffer containing full-length RhoA (100 ng) was pre-incubated with different concentrations of R-G04 (25 µM or 50 µM), and S-G04 (5 µM or 10 µM) was added to the beads. After incubating the compound-RhoA-LARG mixture at 4 °C for 1 h, the beads associated with RhoA were detected with anti-RhoA Western blotting. (B) Top view of the predicted structural contacts of R-G04 and S-G04 in the binding pocket around the Trp58 residue of RhoA.
In total, 100 ng of purified MBP (Maltose-binding protein)-(His)6-tagged LARG DH-PH was immobilized on 20 µL of suspended amylose beads (No. E8021S; New England Biolabs Inc., Ipswich, MA, USA) by incubating them in an orbital shaker at 4 °C for 30 min in binding buffer (20 mM Tris·HCl (pH 7.6), 100 mM NaCl, 0.01% Triton X-100, 5mM EDTA, and 5 mM MgCl2). The compounds were added to the binding buffer containing 100 ng of purified full-length RhoA and pre-incubated at 4 °C for 30 min under constant agitation. The Amylose beads bound to LARG were washed thrice with binding buffer to get rid of unbound LARG, and the pre-incubated compound-RhoA mixture was added to the beads. This LARG-compound-RhoA mixture was incubated in the orbital shaker at 4 °C for 1 h. The beads were washed three times, and the amount of RhoA protein co-precipitated with the MBP-fusion-bound beads was detected with anti-RhoA Western blotting.

[3] abbreviates: read-out: % Platelet Aggregation, Collagen (1 µg/mL).
Setting [4] is: read-out: % Platelet Aggregation, Collagen (5 µg/mL).

The values below come from paper PMC9961652 (International Journal of Molecular Sciences, 2023).

Each structure is given as a SMILES string. Where two headings read alike, the source gives them in different places.

T1 sequence (P61586 whole entry): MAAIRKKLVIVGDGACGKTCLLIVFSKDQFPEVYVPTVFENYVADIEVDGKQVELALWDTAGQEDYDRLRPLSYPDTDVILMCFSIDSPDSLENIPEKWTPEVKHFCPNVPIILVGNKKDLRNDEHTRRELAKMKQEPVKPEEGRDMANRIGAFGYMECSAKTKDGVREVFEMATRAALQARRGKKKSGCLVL

The IC50 is the midpoint of a concentration-inhibition curve. Turning to `O=C(NNc1ccnc2c(C(F)(F)F)cccc12)c1ccc(Cl)c(Cl)c1` [UC-177618], the RhoA-GTP formation entry in the test with RhoA is “inhibited RhoA-GTP formation”. In the test with washed human platelets [1], the “reversibility of inhibitory effect after wash-out” value is given as “entirely reversible”. In addition, the concentration for half-maximal inhibition (IC50) with washed human platelets [2] was 1500 nM. The figures for the activity at 20 µM with washed human platelets [2] (setting [3]) and in the test with washed human platelets [2] (setting [4]) were 5 ± 1.7% and 10.2 ± 4.1%, respectively. Further, the “LARG binding to RhoA” value at RhoA-LARG interaction is reported as “inhibit RhoA-LARG interaction”.

In the case of `O=C(NNc1ccnc2cc(Cl)ccc12)c1ccc(Cl)c(Cl)c1` [UC-177619], the RhoA-GTP formation result with RhoA was “inhibited RhoA-GTP formation”. Also, the “reversibility of inhibitory effect after wash-out” value in the test on washed human platelets [1] is reported as “entirely reversible”. In addition, the 50% inhibitory concentration (IC50) with washed human platelets [2] is 820 nM. Besides, the activity at 20 µM stood at 9.3 ± 3.5% in the test with washed human platelets [2] (setting [3]) and 12 ± 2.1% in the test with washed human platelets [2] (setting [4]). In addition, the “activity in collagen-induced platelet aggregation (SAR statement)” value with washed human platelets [2] (relative to the quinoline analogs) was “slightly better potency”. In addition, at RhoA-LARG interaction, the “LARG binding to RhoA” value is listed as “inhibit RhoA-LARG interaction”.

For `O=C(NNc1ccnc2ccccc12)c1cc2ccccc2[nH]1` [UC-177626], the IC50 with washed human platelets [2] was over 20000 nM. The activity at 20 µM stood at 86 ± 14.4% in the test with washed human platelets [2] (setting [3]) and 87.6 ± 19.4% in the test on washed human platelets [2] (setting [4]). For the same compound, on RhoA-LARG interaction, the “LARG binding to RhoA” value is “showed no effects”.
